Source: PubChem BioAssay AID1259407 (Chemical Carcinogenesis Research Information System (CCRIS), 2018)
Calls of active or inactive are those of the source. No rule for the calls is given here.

Test system: CCRIS mutagenicity, Ames/micronucleus/aberration tests
Experiment: CCRIS mutagenicity studies
Conditions: Test System: AMES SALMONELLA TYPHIMURIUM
Description: The CCRIS database contains chemical records with carcinogenicity, mutagenicity, tumor promotion, and tumor inhibition test results. It was developed by the National Cancer Institute (NCI). Data are derived from studies cited in primary journals, current awareness tools, NCI reports, and other sources. Test results have been reviewed by experts in carcinogenesis and mutagenesis.
CCRIS provides historical information from the years 1985 - 2011. It is no longer updated.
This is an archive assay for CCRIS mutagenicity studies.

[1] = Strain/Indicator: TA98, Metabolic Activation: NONE, Method: PREINCUBATION

Measured: mutagenic call

C=CC(=O)OCCN(C)C
inactive: Strain/Indicator: TA98, Metabolic Activation: HAMSTER, LIVER, S-9, AROCLOR 1254 (10%), Method: PREINCUBATION inactive; negative | [1] inactive; negative | Strain/Indicator: TA98, Metabolic Activation: RAT, LIVER, S-9, AROCLOR 1254 (10%), Method: PREINCUBATION inactive; negative | Strain/Indicator: TA100, Metabolic Activation: HAMSTER, LIVER, S-9, AROCLOR 1254 (10%), Method: PREINCUBATION inactive; negative | Strain/Indicator: TA100, Metabolic Activation: NONE, Method: PREINCUBATION inactive; negative | Strain/Indicator: TA100, Metabolic Activation: RAT, LIVER, S-9, AROCLOR 1254 (10%), Method: PREINCUBATION inactive; negative | Strain/Indicator: TA1535, Metabolic Activation: HAMSTER, LIVER, S-9, AROCLOR 1254 (10%), Method: PREINCUBATION inactive; negative | Strain/Indicator: TA1535, Metabolic Activation: NONE, Method: PREINCUBATION inactive; negative | Strain/Indicator: TA1535, Metabolic Activation: RAT, LIVER, S-9, AROCLOR 1254 (10%), Method: PREINCUBATION inactive; negative | Strain/Indicator: TA1537, Metabolic Activation: HAMSTER, LIVER, S-9, AROCLOR 1254 (10%), Method: PREINCUBATION inactive; negative | Strain/Indicator: TA1537, Metabolic Activation: NONE, Method: PREINCUBATION inactive; negative | Strain/Indicator: TA1537, Metabolic Activation: RAT, LIVER, S-9, AROCLOR 1254 (10%), Method: PREINCUBATION inactive; negative

O=C(O)[C@H]1OC(Oc2c3ccccc3c3ccc4cccc5ccc2c3c54)[C@H](O)[C@@H](O)[C@@H]1O (some centres undefined)
inactive: [1] inactive; negative | Strain/Indicator: TA98, Metabolic Activation: RAT, LUNG, S-9, Method: PREINCUBATION inactive; negative

O=c1ccc2cc3ccoc3cc2o1
inactive: Strain/Indicator: TA98, Metabolic Activation: NONE, Method: STANDARD PLATE inactive; negative | Strain/Indicator: TA98, Metabolic Activation: RAT, LIVER, S-9, AROCLOR 1254, Method: STANDARD PLATE inactive; negative | Strain/Indicator: TA98, Metabolic Activation: RAT, LIVER, S-9, PHENOBARBITAL, Method: STANDARD PLATE inactive; negative | Strain/Indicator: TA100, Metabolic Activation: NONE, Method: STANDARD PLATE inactive; negative | Strain/Indicator: TA100, Metabolic Activation: RAT, LIVER, S-9, AROCLOR 1254, Method: STANDARD PLATE inactive; negative
